# Assay results as given in US9018197B2, “Tetradecahydro-1H-cyclopenta[a]phenanthrene compounds, compositions, and related methods of use” (Suzhou Neupharma Co. Ltd., priority 2010, dated 2015).
# Experiments:
# [1] = test system: A549 cells; assay: Inhibition of cell growth in tumor cells, MTT assay, A549 cells; type: cell-based; details: Homo sapiens, 72 h compound exposure
# Procedure: (§1) Inhibition of cell growth by compounds was measured using MTT assay (Mosmann, T., Journal of Immunological Methods, 1983, 65, 55-63). Tumor cell lines were purchased from ATCC (American Type Culture Collection, Manassas, Va.). All cell lines were maintained in RPMI 1640 (Hyclone) supplemented with 10% fetal bovine serum (FBS, Hyclone), glutamine (2 mM, Hyclone), and antibiotics (penicillin 100 U/mL and streptomycin 50 μg/mL) at 37° C. in a humidified atmosphere of 5% CO2 in air. Taxol (positive control, Sigma) and compounds were dissolved in DMSO (Sigma), and the final concentration of DMSO in the medium was 1%. Tumor cells were plated in 96-well plates at densities from 4000 cells/well of a 96-well plate and allowed to adhere/grow for 24 h. They were then treated with various concentrations of drug for 72 h. 3-(4,5-Dimethylthiazol-2-yl)-2,5-diphenyltetrazolium bromide (MTT, Sigma) was used to determine the number of viable cells at the time of compound addition and the number of cells remaining after 72 h compound exposure. The number of cells remaining after 72 h was compared to the number of viable cells at the time of compound addition by measuring the absorbance at 570 nm, allowing for the calculation of growth inhibition.
# (§2) All concentrations of compounds were tested in triplicate and controls were averaged over 4 wells. IC50 was calculated by plotting the concentration of compound vs the percentage of inhibition in treated wells using GraphPad Prism 5.
# [2] = test system: Bcap-37 cells; assay: Inhibition of cell growth in tumor cells, MTT assay, Bcap-37 cells; type: cell-based; details: Homo sapiens, Bcap37, 72 h compound exposure
# Procedure: as §1, §2
Structure (SMILES),IC50 [1] [nM],IC50 [2] [nM]
"C[C@]12CC[C@H](OC(=O)NCCN3CCCC3)C[C@H]1CC[C@H]1C3=CC[C@H](c4ccc(=O)oc4)[C@@]3(C)CC[C@@H]12 [(3S,5R,8R,9S,10S,13R,17S)-10,13-dimethyl-17-(2-oxo-2H-pyran-5-yl)-2,3,4,5,6,7,8,9,10,11,12,13,16,17-tetradecahydro-1H-cyclopenta[a]phenanthren-3-yl 2-(pyrrolidin-1-yl)ethylcarbamate]",217,168
"C[C@]12CC[C@H](OC(=O)NCCN3CCOCC3)C[C@H]1CC[C@H]1C3=CC[C@H](c4ccc(=O)oc4)[C@@]3(C)CC[C@@H]12 [(3S,5R,8R,9S,10S,13R,17S)-10,13-dimethyl-17-(2-oxo-2H-pyran-5-yl)-2,3,4,5,6,7,8,9,10,11,12,13,16,17-tetradecahydro-1H-cyclopenta[a]phenanthren-3-yl 2-morpholinoethylcarbamate]",54.8,192
"C[C@]12CC[C@H](OC(=O)N3CCNCC3)C[C@H]1CC[C@H]1C3=CC[C@H](c4ccc(=O)oc4)[C@@]3(C)CC[C@@H]12 [(3S,5R,8R,9S,10S,13R,17S)-10,13-dimethyl-17-(2-oxo-2H-pyran-5-yl)-2,3,4,5,6,7,8,9,10,11,12,13,16,17-tetradecahydro-1H-cyclopenta[a]phenanthren-3-ylpiperazine-1-carboxylate]",90.2,137
"CC(C)[C@@H](N)C(=O)O[C@H]1CC[C@@]2(C)[C@H](CC[C@H]3C4=CC[C@H](c5ccc(=O)oc5)[C@@]4(C)CC[C@@H]32)C1 [(R)-((3S,5R,8R,9S,10S,13R,17S)-10,13-dimethyl-17-(2-oxo-2H-pyran-5-yl)-2,3,4,5,6,7,8,9,10,11,12,13,16,17-tetradecahydro-1H-cyclopenta[a]phenanthren-3-yl) 2-amino-3-methylbutanoate]",171,155
"CC(C)C[C@@H](N)C(=O)O[C@H]1CC[C@@]2(C)[C@H](CC[C@H]3C4=CC[C@H](c5ccc(=O)oc5)[C@@]4(C)CC[C@@H]32)C1 [(R)-((3S,5R,8R,9S,10S,13R,17S)-10,13-dimethyl-17-(2-oxo-2H-pyran-5-yl)-2,3,4,5,6,7,8,9,10,11,12,13,16,17-tetradecahydro-1H-cyclopenta[a]phenanthren-3-yl) 2-amino-4-methylpentanoate]",–,376
"C[C@@H](N)C(=O)O[C@H]1CC[C@@]2(C)[C@H](CC[C@H]3C4=CC[C@H](c5ccc(=O)oc5)[C@@]4(C)CC[C@@H]32)C1 [(R)-((3S,5R,8R,9S,10S,13R,17S)-10,13-dimethyl-17-(2-oxo-2H-pyran-5-yl)-2,3,4,5,6,7,8,9,10,11,12,13,16,17-tetradecahydro-1H-cyclopenta[a]phenanthren-3-yl) 2-aminopropanoate]",106,161
"CC(C)[C@H](N)C(=O)O[C@H]1CC[C@@]2(C)[C@H](CC[C@H]3C4=CC[C@H](c5ccc(=O)oc5)[C@@]4(C)CC[C@@H]32)C1 [(S)-((3S,5R,8R,9S,10S,13R,17S)-10,13-dimethyl-17-(2-oxo-2H-pyran-5-yl)-2,3,4,5,6,7,8,9,10,11,12,13,16,17-tetradecahydro-1H-cyclopenta[a]phenanthren-3-yl) 2-amino-3-methylbutanoate]",–,444
"CC(C)C[C@H](N)C(=O)O[C@H]1CC[C@@]2(C)[C@H](CC[C@H]3C4=CC[C@H](c5ccc(=O)oc5)[C@@]4(C)CC[C@@H]32)C1 [(S)-((3S,5R,8R,9S,10S,13R,17S)-10,13-dimethyl-17-(2-oxo-2H-pyran-5-yl)-2,3,4,5,6,7,8,9,10,11,12,13,16,17-tetradecahydro-1H-cyclopenta[a]phenanthren-3-yl) 2-amino-4-methylpentanoate]",229,–
"C[C@H](N)C(=O)O[C@H]1CC[C@@]2(C)[C@H](CC[C@H]3C4=CC[C@H](c5ccc(=O)oc5)[C@@]4(C)CC[C@@H]32)C1 [(S)-((3S,5R,8R,9S,10S,13R,17S)-10,13-dimethyl-17-(2-oxo-2H-pyran-5-yl)-2,3,4,5,6,7,8,9,10,11,12,13,16,17-tetradecahydro-1H-cyclopenta[a]phenanthren-3-yl) 2-aminopropanoate]",112,–
